Assay results from US20240335427A1, “SMALL MOLECULE INHIBITION OF DEUBIQUITINATING ENZYME JOSEPHIN DOMAIN CONTAINING 1 (JOSD1) AS A TARGETED THERAPY FOR LEUKEMIAS WITH MUTANT JANUS KINASE 2 (JAK2)” (DANA-FARBER CANCER INSTITUTE, INC., priority 2021, published 2024).

Experiments:
JAK2-V617F [1] = target: JAK2-V617F (Homo sapiens (Human), UniProt O60674, V617F); assay: JAK2-V617F protein loss in human AML cell lines by western blotting; assay type: cell-based; conditions: HEL cells, co-treatment with cycloheximide
Description: (§1) Immunoblotting and Immunoprecipitation. Protein lysate preparation, immunoblotting, and immunoprecipitation were carried out as previously described (Lamberto, et al., 2017 Cell Chem Biol., 224(12):1490-500 e11). Briefly, 0.7×10^6 cells were treated with compounds 1 and 2 at 0, 5, 10, and 20 μM for 16 or 24 hours, cells were collected, and lysate was prepared in radioimmunoprecipitation assay (RIPA) buffer, JAK family and downstream signaling protein levels were detected by western blotting with the indicated antibodies. For immunoprecipitation, 1 mg protein for each sample was prepared and 1 μg antibody was used, immunoglobulin G (IgG) was added in same amount as nontargeting control.

[2] = tested on: Ba/F3-EPOR-JAK2-V617F-expressing cells; assay: Ba/F3 cell proliferation (CellTiter Glo); assay type: cell-based, murine
Description: Proliferation and Drug Combination Studies. Proliferation and drug combination studies were carried out as previously described (Yang, et al., 2020, British Journal of Cancer, 122:1175-84).
As toxicities can result from small molecule targeting of both oncogenic mutated JAK2 as well as its non-mutated counterpart, a chemical genetics screen was designed and performed of a DUB-focused small molecule inhibitor library with the goal of leveraging crosstalk between phosphorylation and ubiquitination to identify DUB inhibitors able to selectively degrade mutant JAK2 while sparing wt JAK2. Of relevance, activated FLT3 can be selectively degraded over the wt enzyme by inhibition of the DUB, USP10, (Wernig, et al., 2008, Blood, 111(7):3751-9) and similar to FLT3, JAK2 is ubiquitinated in an activation-dependent manner. In brief, the library of known and novel DUB inhibitors was evaluated for ability to suppress growth of Ba/F3-EPOR-JAK2-V617F-expressing cells selectively over Ba/F3-EPOR cells growing in the presence of interleukin-3.
(§2) A broader range of compounds 1 and 2, including concentrations lower than 1 μM, were also tested on growth of EPOR-JAK2-V617F-expressing Ba/F3 cells and parental Ba/F3 EpoR+ cells (24 hours treatment on 4000 cells per well) (FIG. 18-FIG. 18B). Cell growth inhibition (FIG. 17A-FIG. 17B, FIG. 18A-FIG. 18B) was tested on Ba/F3-EPOR-JAK2-V617F (-IL-3/WEHI) and parental Ba/F3-EPOR cells (+IL-3/WEHI) plated at 2000 cells per well, at 1, 3 and 10 μM for 24 hours using the Promega CellTiter Glo® assay.

MCL-1 = MCL-1 (Homo sapiens (Human), UniProt Q07820); assay: MCL-1 expression in HEL cells by western blotting; assay type: cell-based; conditions: 10-20 μM
Description: (§3) With JOSD1 as the prime candidate, JOSD1 binding and inhibition was evaluated by the compounds. First, targeted engagement was confirmed by showing competition with DUB ABP in HEL-FLAG-HA-JOSD1 cells following treatment with the two agents (FIG. 4D). The structures for negative control compounds 66 and 67 are shown below. In addition, the effects of small molecule inhibition of JOSD1 was investigated on MCL-1, an established substrate of JOSD1 (Wu, et al., 2020 Cell Death Differ., 27(1):55-70). […] Other exemplary compounds that inhibit DUBs are listed below in Table 3 (See Supra, ¶ [0063] for structures)

wt JAK2 = wt JAK2 (Mus musculus (Mouse), UniProt Q62120); assay: JAK2 protein level by western blotting in Ba/F3-EPOR-JAK2 wt cells; assay type: cell-based
Description: as §1

[3] = tested on: JAK2-V617F-positive primary AML patient samples; assay: AML liquid culture proliferation, primary patient samples; assay type: cell-based, human
Source text: AML liquid culture proliferation and colony assay studies. Frozen vials of bone marrow from AML patients identified as harboring JAK2-V617F were previously Ficoll®-purified to obtain mononuclear cells and thawed prior to use in studies.

normal bone marrow cells = assay: Normal bone marrow colony assay; assay type: cell-based, human
Description: Normal human bone marrow was also analyzed in a colony assay: 24-well plates seeded with 200 cells/well in MethoCult™ H4434 Classic (methylcellulose-based medium with recombinant cytokines for human cells) ([…] Technologies™ INC., Vancouver, British Columbia, Canada). The plates contained targeted JOSD1 inhibitors at the indicated concentrations. Plates were incubated at 37° C. in 5% CO2 for >1 week, and then myeloid and erythroid colonies (early progenitors with erythroid and myeloid components: colony-forming unit for granulocytes and macrophages (CFU-GM), CFU-erythroid (E), BFU-E, and CFU-granulocyte, erythroid, macrophage, megakaryocyte (GEMM) were counted on an inverted microscope.

SOCS1 = SOCS1 (Homo sapiens (Human), UniProt O15524); assay: SOCS1 expression in HEL cells by western blotting; assay type: cell-based; conditions: 5 μM
Description: as §3

JAK2-V617F [4] = assay: JAK2 protein level by western blotting in Ba/F3-EPOR-JAK2-V617F cells; assay type: cell-based
Description: as §1, with “[…],” for “and 20 μM for 16 or 24 hours,”
as §2

In the case of `Cc1noc(C)c1-c1cccc2nc(NC(=O)[C@H]3CCN(C#N)C3)sc12` [Compound 2, (S)-1-cyano-N-(7-(3,5-dimethylisoxazol-4-yl)benzo[d]thiazol-2-yl)pyrrolidine-3-carboxamide], the JAK2-V617F protein half-life (JAK2-V617F [1]) is reported as “shorten JAK2-V617F protein half-life”, the “killing of Ba/F3-EPOR-JAK2-V617F cells compared to wt JAK2-expressing parental Ba/F3 cells” value [2] is reported as “selective killing” and the cell growth inhibition ([2]; 1, 3 and 10 μM, 24 hours, independent experiments) is reported as “inhibit growth”. The MCL-1 expression (MCL-1) was “decrease”, the “JAK2 levels in wt cells” value (wt JAK2) was “little to no impact on JAK2 levels” and the “potency against JAK2-V617F-positive cells versus normal bone marrow cells” value ([3]; compound 2: 24 h treatment, ruxolitinib: FIG. 16C) was “higher potency exhibited against JAK2-V617F-positive cells than normal bone marrow cells”. For the same compound, the primary cell viability ([3]; starting at concentrations around 1 μM) was “concentration-dependent decrease in primary cell viability”, the “normal bone marrow colony formation” value (normal bone marrow cells; 5 μM or higher) was “significantly impaired” and the “normal bone marrow colony formation” value (normal bone marrow cells; concentrations up to 2.5 μM) was “colonies were able to form”. For the same compound, the SOCS1 expression (SOCS1) was “decrease”, the “JAK2 degradation, independent western blotting” value (JAK2-V617F [4]; 18 hours, 10 μM compound 1 or 5 μM compound 2) was “degradation of JAK2” and the JAK2-V617F protein level (JAK2-V617F [4]; Ba/F3-EPOR-JAK2-V617F-expressing cells) was “decreases in JAK2-V617F protein”.
